{"source": "patent US20070191349A1", "about": "“C8, c8' linked 5-oxo-1,2,3,11a-tetrahydro-5h-pyrrolo[2,1-c][1,4] benzodiazepine dimers with 1h-pyrrole-dicarboxylic acid amide linkers and oligomeric analogs therof as well as related compounds for the treatment of proliferative diseases” (SPIROGEN LIMITED, priority 2004, published 2007)", "key": {"[1]": {"tested_on": "approximately 60 human tumour cell lines", "assay": "NCI60 cell screen, in vitro cytotoxicity, SRB assay", "assay_type": "cell-based", "details": "NCI 60 human tumour cell lines, 48 h continuous exposure", "experimental": "The National Cancer Institute (NCI), Bethesda, Md., USA has available an in vitro cytotoxicity screen which consists of approximately 60 human tumour cell lines against which compounds are tested at a minimum of five concentrations each differing 10-fold. A 48 h continuous exposure protocol is used, where cell viability or growth is estimated with an SRB protein assay.\nThe test compounds were evaluated against approximately 60 human tumour cell lines. The NCI screening procedures were described in detail by Monks and co-workers (Monks, A et al., Journal of the National Cancer Institute, 1991, 83, 757). Briefly, cell suspensions were diluted according to the particular cell type and the expected target cell density (5000-40,000 cells per well based on cell growth characteristics), and added by pipette (100 μL) into 96-well microtitre plates. The cells were allowed a preincubation period of 24 h at 37° C. for stabilisation. Dilutions at twice the intended test concentration were added at time zero in 100 μL aliquots to the wells. The test compounds were evaluated at five 10-fold dilutions (10^−4, 10^−5, 10^−6, 10^−7 and 10^−[…]). The test compounds were incubated for 48 h in 5% CO2 atmosphere and 100% humidity. The cells were then assayed using the sulphorhodamine B assay. A plate reader was used to read the optical densities and a microcomputer processed the readings into GI50 values (in Moles), which is the dosage required to limit cell growth to 50%."}, "[2]": {"tested_on": "K562 human chronic myeloid leukaemia cells", "assay": "In vitro cytotoxicity, K562 cells, MTT assay", "assay_type": "cell-based", "details": "1 h drug exposure, MTT after 4 days", "experimental": "K562 human chronic myeloid leukaemia cells were maintained in RPM1 1640 medium supplemented with 10% fetal calf serum and 2 mM glutamine at 37° C. in a humidified atmosphere containing 5% CO2 and were incubated with a specified dose of drug for 1 h at 37° C. in the dark. The incubation was terminated by centrifugation (5 min, 300 g) and the cells were washed once with drug-free medium. Following the appropriate drug treatment, the cells were transferred to 96-well microtiter plates (10^4 cells per well, 8 wells per sample). Plates were then kept in the dark at 37° C. in a humidified atmosphere containing 5% CO2. The assay is based on the ability of viable cells to reduce a yellow soluble tetrazolium salt, 3-(4,5-dimethylthiazol-2-yl)-2,5-diphenyl-2H-tetrazolium bromide (MTT, Aldrich-Sigma), to an insoluble purple formazan precipitate. Following incubation of the plates for 4 days (to allow control cells to increase in number by approximately 10 fold), 20 μL of MTT solution (5 mg/mL in phosphate-buffered saline) was added to each well and the plates further incubated for 5 h. The plates were then centrifuged for 5 min at 300 g and the bulk of the medium pipetted from the cell pellet leaving 10-20 μL per well. DMSO (200 μL) was added to each well and the samples agitated to ensure complete mixing. The optical density was then read at a wavelength of 550 nm on a Titertek Multiscan ELISA plate reader, and a dose-response curve was constructed. For each curve, an IC50 value was read as the dose required to reduce the final optical density to 50% of the control value."}, "[3]": {"tested_on": "linear pBR322 DNA", "assay": "DNA cross-linking, electrophoretic assay (Hartley et al.)", "assay_type": "biochemical", "details": "2 h at 37° C., pH 7.2", "experimental": "The extent of DNA cross-linking induced by each PBD dimer was determined using the electrophoretic assay method of Hartley, et al. (Hartley, J. A., Berardini, M. D., and Souhami, R. L. (1991) Anal. Biochem. 193, 131-134) based on the principle that, following complete denaturation of linear pBR322 DNA (˜4,300 bp) to the single-stranded (SS) form, an interstrand cross-link results in renaturation to double-stranded (DS) in a neutral gel.\nClosed-circular DNA was linearized with HindIII, then dephosphorylated and finally 5′-singly end-labelled using [γ^32P]-ATP and polynucleotide kinase. Reactions containing 30-40 ng of DNA and the test compound were carried out in aqueous TEOA (25 mM triethanolamine, 1 mM EDTA, pH 7.2) buffer at 37° C. in a final volume of 50 μl for 2 h. Reactions were terminated by addition of an equal volume of stop solution (0.6 M NaOAc, 20 mM EDTA, 100 μg/ml tRNA) followed by precipitation with ethanol. Following centrifugation, the supernatant was discarded and the pellet dried by lyophilization. […] Control non-denatured samples were re-suspended in 10 μl of non-denaturing buffer solution (0.6% sucrose, 0.04% bromophenol blue in aqueous TAE buffer [40 mM Tris, 20 mM acetic acid, 2 mM EDTA, pH 8.1]) and loaded directly onto the gel for comparison.\nElectrophoresis was carried out for 14-16 h at 40 V using a 0.8% submerged agarose gel (20×25×0.5 cm) in TAE buffer. Gels were dried under vacuum for 2 h at 80° C. onto one layer each of Whatman 3MM and DE8I filter papers using a BioRad 583 gel dryer. Autoradiographs were obtained after exposure of Hyperfilm-MP film (Amersham plc, U.K.) to the dried gel for either 4 h with a screen (or over night, without a screen, to obtain a sharper image). Film bands were quantitated using a BioRad GS-670 imaging laser densitometer. Percentage cross-linking was calculated by measuring the total DNA in each lane (summed density for the double-stranded [DS] and single-stranded [SS] bands) relative to the amount of cross-linked DNA (density of DS band alone). A dose-response curve was derived by plotting drug concentration against the determined percentage level of cross-linked DNA which was then analysed to determine the concentration of test compound that results in 50% cross-linked plasmid DNA (XL50)."}, "[4]": {"details": "Alkali, read-out: XL50 (concentration that results in 50% cross-linked plasmid DNA), Alkali"}, "[5]": {"details": "Heat, read-out: XL50 (concentration that results in 50% cross-linked plasmid DNA), Heat"}}, "note": "Like-named read-outs stand apart in the source and are kept apart here.", "data": [{"smiles": "COc1cc2c(cc1NC(=O)c1ccc(C(=O)Nc3cc4c(cc3OC)C(=O)N3CCC[C@H]3C=N4)n1C)N=C[C@@H]1CCCN1C2=O", "note": "[(1) SJG-605, 1-Methyl-1H-pyrrole-2,5-dicarboxylic acid bis-[(11aS)(7-methoxy-5-oxo-1,2,3,11a-tetrahydro-5H-pyrrolo[2,1-c][1,4]benzodiazepin-8-yl)-amide]]", "values": [{"measurement": "GI50", "setting": "[1]", "value": 1000, "unit": "nM"}, {"measurement": "IC50", "setting": "[2]", "value": 1200, "unit": "nM"}, {"measurement": "EC50", "setting": "[3]; [4]", "value": 1300, "unit": "nM"}]}, {"smiles": "COc1cc2c(cc1NC(=O)c1cc(C(=O)Nc3cc4c(cc3OC)C(=O)N3CCC[C@H]3C=N4)n(C)c1)N=C[C@@H]1CCCN1C2=O", "note": "[(2) SJG-604, 1-Methyl-1H-pyrrole-2,4-dicarboxylic acid bis-[(11aS)(7-methoxy-5-oxo-1,2,3,11a-tetrahydro-5H-pyrrolo[2,1-c][1,4]benzodiazepin-8-yl)-amide]]", "values": [{"measurement": "GI50", "setting": "[1]", "value": 31600, "unit": "nM"}, {"measurement": "IC50", "setting": "[2]", "value": 23000, "unit": "nM"}, {"measurement": "EC50", "setting": "[3]; [4]", "value": 3500, "unit": "nM"}]}, {"smiles": "COc1cc2c(cc1OCCCNC(=O)c1ccc(C(=O)NCCCOc3cc4c(cc3OC)C(=O)N3CCC[C@H]3C=N4)n1C)N=C[C@@H]1CCCN1C2=O", "note": "[(13) AT-217]", "values": [{"measurement": "GI50", "setting": "[1]", "value": 19000, "unit": "nM"}, {"measurement": "EC50", "setting": "[3]; [4]", "value": 350, "unit": "nM"}, {"measurement": "EC50", "setting": "[3]; [5]", "value": 3800, "unit": "nM"}]}, {"smiles": "COc1cc2c(cc1OCCCC(=O)Nc1cc(C(=O)NCCCNC(=O)c3cc(NC(=O)CCCOc4cc5c(cc4OC)C(=O)N4CCC[C@H]4C=N5)cn3C)n(C)c1)N=C[C@@H]1CCCN1C2=O", "note": "[(15) AT-281]", "values": [{"measurement": "GI50", "setting": "[1]", "value": 10, "unit": "nM"}, {"measurement": "IC50", "setting": "[2]", "value": 340, "unit": "nM"}]}, {"smiles": "COc1cc2c(cc1OCCCNC(=O)c1cc(NC(=O)c3cc(NC(=O)c4cc(NC(=O)CCCOc5cc6c(cc5OC)C(=O)N5CCC[C@H]5C=N6)cn4C)cn3C)cn1C)N=C[C@@H]1CCCN1C2=O", "note": "[(18) AT-235]", "values": [{"measurement": "GI50", "setting": "[1]", "value": 10, "unit": "nM"}, {"measurement": "IC50", "setting": "[2]", "value": 1510, "unit": "nM"}, {"measurement": "EC50", "setting": "[3]; [4]", "value": "< 100", "unit": "nM"}, {"measurement": "EC50", "setting": "[3]; [5]", "value": 230, "unit": "nM"}]}]}
